Five compounds from article PMC7504360 (International Journal of Molecular Sciences, 2020) can be followed below.

Where two headings read alike, the source gives them in different places. Square brackets hold non-standard residues; d marks the D form. Peptide text beside a SMILES is read from it. A value given as a limit tells only on which side of the number the result lay.

One data set deals with all bacterial strains. In words: Mean MIC over all bacterial strains (GM). The class given is cell-based. The following applies: mean MIC of all bacterial strains of Table 2. On the procedure: (§1) Briefly, the microplates were inoculated with two-fold serial dilutions of each peptides in Mueller–Hinton (MH) media and then seeded with log-phase culture of aforementioned bacterial suspensions (2 × 10^5 CFU/mL). The microplates were incubated for 16 h at 37 °C, and absorbance was read at 600 nm using microplate reader SpectraMAX (Molecular Devices, San Jose, CA, USA).

For data set [1], the system named is A. baumannii (KCCM 40203).
Source text: (§2) Two strains of gram-negative bacteria, namely E. coli (KCTC 1682) and A. baumannii (KCCM 40203) from the Korean Collection for Type Cultures (KCTC) (Taejon, Korea) and Korean Culture Center of Microorganisms (KCCM) (Seoul, South Korea). Escherichia coli K1 strain RS218 (O18:K1:H7) was a gift from Prof. Jang-Won Yoon in Kangwon National University (Chuncheon, South Korea). Multidrug-resistant gram-negative bacteria (E. coli CCARM 1229, E. coli CCARM 1238, A. baumannii CCARM 12010, and A. baumannii CCARM 12220) were obtained from the Culture Collection of Antibiotic-Resistant Microbes (CCARM) at Seoul Women’s University (Seoul, South Korea).
as §1

Data set [2] concerns MDREC 1238 (E. coli CCARM 1238).
Source text: as §2, §1

For the next data set, the system named is E. Coli.
Source text: as §2, §1

The test system of data set [3] is MDRAB 12220 (A. baumannii CCARM 12220).
Source text: as §2, §1

Data set [4] deals with MDREC 1229 (E. coli CCARM 1229).
Source text: as §2, §1

Data set [5] concerns MDRAB 12010 (A. baumannii CCARM 12010).
Source text: as §2, §1

The next data set has as its system RAW264.7 cells. In words: Cytotoxicity, WST-8 cell proliferation assay. Format: cell-based, mouse. The following applies: 24 h, WST-8, 450 nm, mean of three experiments. The procedure: Murine RAW264.7 macrophage cells were purchased from Korean Cell Line Bank (Seoul, South Korea). The cells were cultured in Dulbecco modified Eagle medium (DMEM) (Thermo Fischer Scientific Inc., MA, USA) supplemented with 10% fetal bovine serum, 100 U/mL penicillin, and […] streptomycin at 37 °C in a humidified 5% CO2 incubator. The cytotoxicity of peptides against RAW264.7 cells was determined using WST-8 Cell Proliferation Assay Kit (Biomax Co.,Ltd, Seoul, South Korea). Briefly, cells (1 × 10^5) were seeded in 96-well plated and then treated with 3.125, 6.25, 12.5, 25, and 50 μM of respective peptides for 24 h followed by addition of 10 μL of the WST-8 reagent for another 3 h incubation at 37 °C. The color intensity was read at 450 nm using a microplate reader.

In data set [6] the test system is sheep red blood cells (sRBCs). As to the kind of experiment: Hemolytic activity. The class given is cell-based. On the procedure:
The hemolytic activity of all Pro-peptides were tested against sheep red blood cells (sRBCs) as described in previous reports. Fresh sRBCs were washed three times with phosphate-buffered saline (PBS) followed by centrifugation for 5 min at 2500 rpm at 4 °C. Peptides (0.2 to 100 μM) in PBS were incubated with 4% (v/v) sRBCs for 1 h at 37 °C. The contents were then centrifuged for 5 min at 1000 × g. The absorbance of the supernatant at 405 nm was used as a measure of hemolysis, and three times independent measurements were averaged. As a control, 100% hemolysis was obtained by treating sRBCs with melittin.

The test system of data set [7] is Standard gram-negative bacteria. The following applies: table row printed 'Standard gram-negative bacteria'; MH media, 2 × 10^5 CFU/mL, 16 h at 37 °C, absorbance 600 nm; average of three measurements.
Source text: as §2, §1

The next data set concerns chymotrypsin. As to the kind of experiment: Protease stability assay (antimicrobial activity after protease digestion). The class given is in vitro ADME. The following applies: peptide–enzyme 10,000:1, PBS, 6 h at 37 °C preincubation, then E. coli and A. baumannii 2 × 10^5 CFU/mL, 16 h at 37 °C, 600 nm, repeated three times. On the procedure: (§3) For stability analysis, all Pro-peptides at their MICs were incubated with trypsin and chymotrypsin at the ratio of 10,000:1 (peptide–enzyme) in PBS for 6 h at 37 °C. After incubation, 100 μL of peptide-protease mixture was added to the 100 μL bacterial suspension (E. coli and A. baumannii, 2 × 10^5 CFU/mL) and further incubated for 16 h at 37 °C. Melittin was used as standard peptide, and bacterial suspension without peptide and protease served as control. The experiment was repeated three times, and the extent of bacterial growth was measured at 600 nm using a microplate reader.

For another data set, the system named is trypsin. The description is as above. The following applies: peptide–enzyme 10,000:1, PBS, 6 h at 37 °C preincubation, then E. coli and A. baumannii 2 × 10^5 CFU/mL, 16 h at 37 °C, 600 nm, repeated three times. The class given is in vitro ADME. On the procedure:
as §3

Data set [8] can be described thus: LPS neutralization, limulus amebocyte lysate (LAL) assay. Format: biochemical, Escherichia coli O111:B4. The following applies: 50 μM peptide, 20 ng/mL LPS, 30 min at 37 °C, LAL chromogenic kit, 405 nm; triplicate. On the procedure:
The LPS-neutralizing activity of all peptides was determined using the Pierce LAL chromogenic endotoxin quantitation kit (ThermoFisher Scientific, MA, USA). All peptides including standard (Polymixin B) at varying concentrations (3.12, 6.25, 12.5, 25, and 50 μM in endotoxin-free water) were allowed to bind with 20 ng/mL of LPS in a 96-well plate for 30 min at 37 °C. To this, an equal volume (10 μL) of LAL reagent was added and incubated for 10 min at 37 °C and then 20μL of LAL chromogenic substrate was added. After 15 min incubation at 37 °C, the reaction was stopped by 25% acetic acid and the reduction in yellow color formation due to the substrate was measured at 405 nm on an absorbance microplate reader. The experiment was conducted in triplicate, and the changes in absorbance due to peptide-LPS interaction are indicated as percent LPS neutralization.

Turning to `CC[C@H](C)[C@H](NC(=O)CN)C(=O)NCC(=O)N[C@@H](C)C(=O)N[C@H](C(=O)N[C@@H](CC(C)C)C(=O)N[C@@H](CCCCN)C(=O)N[C@H](C(=O)N[C@@H](CC(C)C)C(=O)N[C@H](C(=O)N[C@H](C(=O)NCC(=O)N[C@@H](CC(C)C)C(=O)N1CCC[C@H]1C(=O)N[C@@H](C)C(=O)N[C@@H](CC(C)C)C(=O)N[C@H](C(=O)N[C@@H](CO)C(=O)N[C@@H](Cc1c[nH]c2ccccc12)C(=O)N[C@H](C(=O)N[C@@H](CCCCN)C(=O)N[C@@H](CCCNC(=N)N)C(=O)N[C@@H](CCCCN)C(=O)N[C@@H](CCCNC(=N)N)C(=O)N[C@@H](CCC(N)=O)C(=O)N[C@@H](CCC(N)=O)C(N)=O)[C@@H](C)CC)[C@@H](C)CC)[C@@H](C)O)[C@@H](C)O)C(C)C)C(C)C` [Melittin, reference compound], the “GM (geometric mean of MIC values of all bacterial strains)” value in the data set with all bacterial strains was found to be 12.0 µM.

`CC[C@@H](C)[C@@H](NC(=O)[C@@H](C)NC(=O)[C@@H](CC(C)C)NC(=O)[C@@H](Cc1c[nH]c2ccccc12)NC(=O)[C@@H](CC(C)C)NC(=O)[C@H](N)CCCNC(=N)N)C(=O)N[C@H](Cc1c[nH]c2ccccc12)C(=O)N[C@H](CCCNC(=N)N)C(=O)N[C@H](CCCNC(=N)N)C(N)=O` [Pro9-3D] (H-[dR][dL][dW][dL][dA][dI][dW][dR][dR]-NH2): the “Minimal Inhibitory Concentration (MIC100)” value is 4 µM in [1] (KCCM 40203, 16 h); 4 µM in data set [2] (CCARM 1238, 16 h); 4 µM with E. Coli (16 h); 8 µM in [3] (CCARM 12220, 16 h); 8 µM in [4] (CCARM 1229, 16 h); 8 µM in [5] (CCARM 12010, 16 h). Also, the entries for the “survival rate of RAW264.7 cells” value in the data set on RAW264.7 cells (25 μM) and with RAW264.7 cells (50 μM) were 68% and 51.8%, respectively. Further, the “HC10 (peptide concentration inducing 10% hemolysis)” value in data set [6] (red cells of sheep, 1 h) was 200 µM.

For the compound `CC[C@H](C)[C@H](NC(=O)[C@H](C)NC(=O)[C@H](CC(C)C)NC(=O)[C@H](Cc1c[nH]c2ccccc12)NC(=O)[C@H](CC(C)C)NC(=O)[C@@H](N)CCCNC(=N)N)C(=O)N[C@@H](Cc1c[nH]c2ccccc12)C(=O)N[C@@H](CCCNC(=N)N)C(=O)N[C@@H](CCCNC(=N)N)C(N)=O` [Pro9-3] (H-RLWLAIWRR-NH2), the “Minimal Inhibitory Concentration (MIC100)” value in data set [1] (KCCM 40203, 16 h) is 16 µM; in data set [2] (CCARM 1238, 16 h), 32 µM; with E. Coli (16 h) it was 16 µM; in [3] (CCARM 12220, 16 h), 16 µM; in data set [4] (CCARM 1229, 16 h) it was 16 µM; in data set [7], 16 µM. The “Minimal Inhibitory Concentration (MIC100)” value in data set [5] (CCARM 12010, 16 h) was found to be 16 µM. Moreover, the results for the “survival rate of RAW264.7 cells” value in the data set with RAW264.7 cells (25 μM) and in the data set on RAW264.7 cells (50 μM) were 95% and 94%, respectively. Further, in data set [6] (red cells of sheep, 1 h), the “HC10 (peptide concentration inducing 10% hemolysis)” value stood at 200 µM. The “peptide concentration up to which bacterial growth was not inhibited in the presence of protease” value with chymotrypsin is > 64 µM.

Consider `CC[C@H](C)[C@H](NC(=O)[C@H](C)NC(=O)[C@H](CC(C)C)NC(=O)[C@H](Cc1c[nH]c2ccccc12)NC(=O)[C@H](CC(C)C)NC(=O)[C@H](CCCNC(=N)N)NC(=O)[C@@H](N)CCCNC(=N)N)C(=O)N[C@@H](Cc1c[nH]c2ccccc12)C(=O)N[C@@H](CCCNC(=N)N)C(=O)N[C@@H](CCCNC(=N)N)C(N)=O` [Pro10-1] (H-RRLWLAIWRR-NH2), for which the “Minimal Inhibitory Concentration (MIC100)” value came out at 8 µM in data set [1] (A. baumannii, MH media, 2 × 10^5 CFU/mL, 16 h at 37 °C, absorbance 600 nm, average of three measurements); 32 µM in [2] (MDREC 1238, MH media, 2 × 10^5 CFU/mL, 16 h at 37 °C, absorbance 600 nm, average of three measurements); 16 µM in the data set on E. Coli (table row printed 'E. Coli', MH media, 2 × 10^5 CFU/mL, 16 h at 37 °C, absorbance 600 nm, average of three measurements); 16 µM in data set [3] (MDRAB 12220, MH media, 2 × 10^5 CFU/mL, 16 h at 37 °C, absorbance 600 nm, average of three measurements); 8 µM in data set [4] (MDREC 1229, MH media, 2 × 10^5 CFU/mL, 16 h at 37 °C, absorbance 600 nm, average of three measurements); 16 µM in [7]. For the same compound, in data set [5] (MDRAB 12010, MH media, 2 × 10^5 CFU/mL, 16 h at 37 °C, absorbance 600 nm, average of three measurements), the “Minimal Inhibitory Concentration (MIC100)” value stood at 8 µM. Further, the “survival rate of RAW264.7 cells” value with RAW264.7 cells (25 μM) is recorded as 90%; in the data set on RAW264.7 cells (50 μM) it was 87%. Besides, the hemolysis result in data set [6] (100 μM peptide, 4% (v/v) sRBCs in PBS, 1 h at 37 °C, absorbance 405 nm, three measurements averaged) is recorded as “no hemolytic activity”. Besides, the “HC10 (peptide concentration inducing 10% hemolysis)” value in data set [6] (heparinized sheep red blood cells, 200 μM entered when no detectable hemolysis was observed at 100 μM) came to 200 µM. The “peptide concentration up to which bacterial growth was not inhibited in the presence of protease” value with trypsin and in the data set with chymotrypsin was > 64 µM each time.

With polymyxin B [reference compound], in [8], the “inhibition of the activation of LPS (LPS neutralization)” value was determined as 67.4%.
